Data set [1] deals with primary human hepatocytes (PHH). The data set can be described thus: Western blot of γH2AX and p53 in primary human hepatocytes. Particulars: 24 h; for γH2AX induction vs. control: selected concentrations. The method, then: (§1) Both cell lines were cultivated in DMEM high glucose without pyruvate (Gibco, Thermo Fisher Scientific, Waltham MA, USA) supplemented with 10% foetal calf serum (FCS, Pan-Biotech, Aidenbach, Germany) and 1% penicillin/streptomycin (Gibco, Thermo Fisher Scientific, Waltham MA, USA). […] Cryopreserved PHH (BioIVT, Brussels, Belgium) pooled from 10 donors (5 × females, 5 × males) were handled according to the protocol of the manufacturer. […] Cells were then diluted, plated for the respective assays in collagen-coated plates, and allowed to adhere for 3 h.
(§2) To this end, 5 × 10^5 cells were seeded in 3.5-cm dishes to adhere overnight. […] Proteins were separated by SDS-PAGE followed by the transfer onto a nitrocellulose membrane using the wet blot method. The successful transfer was confirmed by Ponceau S staining of the membrane before blocking with 5% non-fat dry milk in Tris-buffered saline with Tween-20 (MP-TBS-T). Subsequently, the membrane was incubated with the respective primary antibodies overnight at 4 °C. The membranes were washed three times for 5 min with TBS-T before incubating with the respective secondary antibody coupled with horseradish peroxidase. The detection was carried out using the Western Lightning Plus-ECL reagent (Perkin Elmer, Waltham MA, USA) with the c300 chemiluminescence imager (Azure Biosystems, Dublin CA, USA). The used primary and secondary antibodies are detailed in supplementary Table S3.
(In general: In western blotting, separated proteins are transferred to a membrane and probed.)

Data set [2] concerns HepG2 cells. The arrangement: method as in Yang et al. 2022. Particulars: MTT assay; ref Yang et al. 2022; cited from earlier work. For orientation: Tetrazolium dyes change colour on reduction, which living cells bring about.
Data set [3] deals with HepG2 cells. Particulars: 24 h. As to the method:
as §2, with “γH2AX and p53 levels were assessed by SDS-PAGE and western blotting as reported (Fahrer et al. [2013]). To” for “To”

Data set [4] deals with primary human hepatocytes (PHH). The data set can be described thus: Resazurin reduction assay (cytotoxicity) in PHH. Particulars: 24 h. The method, then:
as §1
PHH were seeded in 96-well plates precoated with collagen at a cell density of 7 × 10^4/well, left to adhere for 3 h, and treated as described above for 24 h. After treatment, medium was discarded and replaced by resazurin reaction solution containing 44 µM resazurin in NaCl/Pi buffer (1.1 mM KH2PO4, 154 mM NaCl, and 3.7 mM Na2HPO4∙H2O) diluted 1:10 in medium without FCS and P/S. The cells were then incubated for 1.5 h and fluorescence was measured using a Spark® microplate reader (Tecan, Männedorf, Switzerland) with an excitation at 544 nm and emission at 590 nm. The cell viability was calculated relative to the negative control (set to 100%).
On the technique in general: Alamar Blue is a resazurin reagent that responds to reducing activity.

Data set [5] has as its system HepG2 cells. The method, then:
(§3) The CBMN assay was performed according to the OECD test guideline #487. Therefore, 2 × 10^5 cells were seeded in 3.5 cm dishes and allowed to adhere for 24 h. […] After the 24 h treatment, the medium was discarded and the cells were incubated with fresh medium, containing 6 µg/mL cytochalasin B as cytokinesis inhibitor. The cells were then left to grow for 72 h, allowing for 1.5–2 × cell cycles. Subsequently, the cells were rinsed with PBS and fixed with ice-cold methanol for 10 min at –20 °C. Cells were washed and embedded with Vectashield® containing DAPI (Vector Labs, Burlingame, CA, USA). The samples were analysed with a Zeiss Axio Observer 7 microscope equipped with an Axiocam 305 mono and a 63 × oil immersion objective (plan-apochromat 63x/1.40 DIC M27) using ZEN Software 3.2. 500 binucleated cells per sample were analysed for micronuclei formation.
(§4) As benchmark response (BMR) for all concentration–response curves (adducts, micronuclei), a 2.0-fold increase vs. solvent control was used (BMC100, critical effect size = 1). The determined BMC100 and the corresponding upper and lower boundary (BMCU and BMCL, respectively) of the 90% confidence interval (CI) were used for potency comparison.

Data set [6] has as its system HepG2-CYP1A2 cells. The settings on record: ES 24 h + 72 h recovery; not statistically significant; concentration not given. As to the method: Following the recovery time, the cells were detached, harvested by centrifugation (300 g, 5 min), and washed with PBS. […] The fluorescent dye was then activated by photolysis (60 W lightbulb, 30 cm spacing) for 20 min before addition of 9 mL PBS to remove unbound dye. […] 1.5 × 10^4 cells were analysed using the BD FACSDiva software (BD Biosciences, Heidelberg, Germany). A schematic overview of the gating strategy is provided in the supporting information, Fig. 3.

Data set [7] has as its system rats. The arrangement: method as in Nesslany et al. 2010. Particulars: up to 2 g ES/kg bw by oral gavage; ref Nesslany et al. 2010; cited from earlier work.
Data set [8] deals with HepaRG cells. The arrangement: method as in Le Hegarat et al. 2014. Particulars: up to 2 mM ES for 24 h; ref Le Hegarat et al. 2014; cited from earlier work.
The test system of data set [9] is HepG2-CYP1A2 cells. The method, then: as §3, §4
Data set [10] has as its system mice. Also on record: method as in Suzuki et al. 2012b. The settings on record: up to 300 mg/kg bw and day over 13 weeks; ref Suzuki et al. 2012b; cited from earlier work.
In data set [11] the test system is HepG2-CYP1A2 cells. As to the kind of experiment: Western blot of γH2AX and p53 in HepG2-CYP1A2 cells. The settings on record: 24 h. As to the method: as §2, with “γH2AX and p53 levels were assessed by SDS-PAGE and western blotting as reported (Fahrer et al. [2013]). To” for “To”
Setting [12] is: endpoint MN (CBMN), BMR 2.0-fold increase.
The mark [13] stands for this setting: endpoint MN (CBMN), BMR 2.0-fold increase, 90% CI.
The mark [14] stands for this setting: range stated for both ES and 1′OH-ES.

The values that follow come from paper PMC12408683 (Archives of Toxicology, 2025).

As a reminder, the EC50 is the concentration needed to bring the measured effect to its halfway point. Regarding `C=CC(O)c1ccc(OC)cc1` (stereo not shown) [1′OH-ES, 1′-hydroxyestragole], in data set [1], the p53 levels result is on record as “slightly declined” and the “γH2AX induction vs. control” value was “threefold”. In addition, in [2], the EC50 was 102 µM. In [3] (5 µM 1′OH-ES), this compound registered a γH2AX increase of 2.2 fold. In [3] (50 µM 1′OH-ES), the p53 induction result is recorded as “sevenfold” and the γH2AX induction amounted to 4.8 fold. Besides, the EC50 in data set [4] (read-out: EC50 (cell viability)) is 107 µM. Also, the “MN induction vs solvent control (CBMN)” value in [5] (50 µM 1′OH-ES (top concentration)) was “roughly a twofold induction”. Also, in data set [5] (24 h + 72 h recovery), the “concentration at which the increase in MN starts (CBMN)” value was 5 µM. Besides, the BMC100 in [5] (setting [12]) came to 32.0 µM. In [5] (setting [13]), the BMCL is 21.0 µM and the BMCU is recorded as 106 µM. The “BMC for clastogenic response vs BMC for DNA adduct formation” value in [5] (setting [14]) was 12–17 fold.

Take `C=CCc1ccc(OC)cc1` [ES, estragole]: the “γH2AX induction vs. control” value in [1] was 1.4 fold; in data set [11] (250 µM ES), “threefold”. Moreover, the “MN formation, increase vs. solvent control (flow cytometry)” value in data set [6] is recorded as 1.6 fold. For the same compound, in data set [7], the “MN levels, study outcome” value was “negative”. Moreover, the viability entry in [4] (test concentrations up to 5 mM) is reported as “did not affect viability”. The “DNA strand breaks (comet assay) outcome” value in data set [8] was “negative outcome”. In addition, the “MN induction vs solvent control (CBMN)” value in data set [9] (2000 µM ES (top concentration)) was “roughly a twofold induction”. Besides, the “concentration at which the increase in MN starts (CBMN)” value in data set [9] (24 h + 72 h recovery) is 500 µM. Further, in data set [9] (CBMN and MN flow assay), the “concentrations at which clastogenicity was observed” value was at least 1000 µM. The compound further came in with a BMC100 in data set [9] (setting [12]) of 1116 µM. The compound also registered a BMCL in [9] (setting [13]) of 555 µM. This compound returned a BMCU in data set [9] (setting [13]) of 1755 µM. The “BMC for clastogenic response vs BMC for DNA adduct formation” value in [9] (setting [14]) was 12–17 fold. Besides, in data set [10], the clastogenicity result is “clastogenicity was not detected”. For the same compound, in data set [11], the p53 accumulation result is “No p53 accumulation”.
